According to patent US10988433B2, “Cyclohexyl GPR40 agonists for the treatment of type II diabetes” (Janssen Pharmaceutica NV, priority 2016, dated 2021):

How the values were obtained:
rat GPR40 = target: T1, rat GPR40 (Rattus norvegicus, UniProt Q8K3T4); experiment: GPR40 calcium flux assay, HEK293 cells stably expressing rat GPR40; type: cell-based; details: transfected HEK293 cells stably expressing rat GPR40, Fluo 8 dye, read-out: rGPR40 Ca2+ Assay EC50
T1 construct: expressed in transfected cells

human GPR40 = target: T2, human GPR40 (Homo sapiens, UniProt O14842); experiment: GPR40 calcium flux assay, HEK293 cells stably expressing human GPR40; type: cell-based; details: transfected HEK293 cells stably expressing human GPR40, Fluo 8 dye, read-out: hGPR40 Ca2+ Assay EC50
T2 construct: expressed in transfected cells

Male SD rats = experiment: Oral Glucose Tolerance Test, Version A; type: in vivo, rat; details: Assay Version A: fasted male SD rats, dosed 30 min prior to oGTT (glucose 2 g/kg po); blood glucose AUC t=0 to 120 min vs vehicle
Procedure: Male SD rats (200-250 g) were housed 2 per cage in a temperature-controlled room with a 12-hour light/dark cycle. They were allowed ad libitum access to water and fed with normal rodent chow. The night before the oral glucose tolerance test (oGTT), the rats were transferred to clean cages and fasted overnight. On the morning of the oGTT, the rats were weighed and randomized into groups based on fasted blood glucose and body weight. Rats were dosed with vehicle (0.5% methocel) or compounds thirty min prior to the oGTT (glucose, 2 g/kg, po). Blood was collected from the tail vein at 0, 10, 30, 60 and 120 minutes after glucose challenge to measure blood glucose; plasma was used to determine insulin levels. The area under the curve for blood glucose excursion was calculated from t=0 to t=120 minutes. Percent lowering of glucose was calculated from the AUC data with respect to the vehicle-treated group.

Male ZDF rats = experiment: Oral Glucose Tolerance Test, Version B; type: in vivo, rat; details: Assay Version B: fasted male ZDF rats, compound 10 mg/kg 120 min prior to OGTT (glucose 1 g/kg po); blood glucose AUC t=0 to 120 min vs vehicle
Procedure: Male ZDF rats (7 weeks old, 200-240 g) were housed 2 per cage in a temperature-controlled room with a 12-hour light/dark cycle. They were allowed ad libitum access to water and fed with 5008 rodent chow. The night before the oral glucose tolerance test (OGTT), the rats were transferred to clean cages and fasted overnight. On the morning of the OGTT, the rats were weighed and randomized into groups based on fasted blood glucose and body weight. Rats were dosed with vehicle (0.5% Methocel) or compound (10 mg/kg) 120 min prior to the OGTT (glucose, 1 g/kg, po). Blood was collected from the tail vein at 0, 10, 30, 60 and 120 minutes after glucose challenge to measure blood glucose; plasma was used to determine insulin levels. The area under the curve for blood glucose excursion was calculated from t=0 to t=120 minutes. Percent lowering of glucose was calculated from the AUC data with respect to the vehicle-treated group.

T2 sequence (O14842 whole entry): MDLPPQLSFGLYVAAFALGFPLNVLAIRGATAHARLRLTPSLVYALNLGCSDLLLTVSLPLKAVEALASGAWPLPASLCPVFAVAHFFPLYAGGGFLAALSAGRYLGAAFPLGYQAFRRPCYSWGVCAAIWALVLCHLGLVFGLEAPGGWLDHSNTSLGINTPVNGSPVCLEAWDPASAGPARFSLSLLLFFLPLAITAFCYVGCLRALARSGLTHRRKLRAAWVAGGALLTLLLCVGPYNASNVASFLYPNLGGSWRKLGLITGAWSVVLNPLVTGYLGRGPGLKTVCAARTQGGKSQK
T1 sequence (Q8K3T4 whole entry): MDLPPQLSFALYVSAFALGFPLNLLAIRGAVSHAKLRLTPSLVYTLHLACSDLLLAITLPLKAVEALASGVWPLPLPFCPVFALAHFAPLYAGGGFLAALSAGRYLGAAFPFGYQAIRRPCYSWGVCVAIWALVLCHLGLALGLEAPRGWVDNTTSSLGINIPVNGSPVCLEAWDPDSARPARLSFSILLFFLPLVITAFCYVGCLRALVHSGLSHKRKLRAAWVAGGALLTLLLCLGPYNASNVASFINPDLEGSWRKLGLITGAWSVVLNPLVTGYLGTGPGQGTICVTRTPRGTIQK

Row | EC50 (rat GPR40) [nM] | EC50 (human GPR40) [nM] | Compound | Percent Lowering of Glucose (AUC compound vs. AUC Vehicle) (Male SD rats) [%] | Percent Lowering of Glucose (AUC compound vs. AUC Vehicle) (Male ZDF rats) [%]
1 | 1.3 | 5.3 | COc1cc([C@H]2CC[C@H](COc3cc([C@@H](CC(=O)O)C4CC4)ccn3)CC2)c(F)cn1 [Cpd 25, (S)-3-Cyclopropyl-3-(2-(((1r,4S)-4-(5-fluoro-2-methoxypyridin-4-yl)cyclohexyl)methoxy)pyridin-4-yl)propanoic acid] | 28 | –
2 | 0.9 | 0.2 | COc1ccc(F)c([C@H]2CC[C@H](COc3cc([C@@H](CC(=O)O)C4CC4)ccn3)CC2)c1 [Cpd 27, (S)-3-Cyclopropyl-3-(2-(((1r,4s)-4-(2-fluoro-5-methoxyphenyl)cyclohexyl)methoxy)pyridin-4-yl)propanoic acid] | 32 | –
3 | 0.72 | 0.27 | COc1ccc(F)c([C@H]2CC[C@H](COc3cccc([C@H](C4CC4)[C@@](C)(F)C(=O)O)c3)CC2)c1 [Cpd 59, (2R,3S)-3-Cyclopropyl-2-fluoro-3-(3-(((1r,4S)-4-(2-fluoro-5-methoxyphenyl)cyclohexyl)methoxy)phenyl)-2-methylpropanoic acid] | – | 48
